{
  "source": "patent EP4610267A1",
  "about": "“CYCLIC DINUCLEOTIDES AND CONJUGATES THEREOF WITH ANTIBODIES” (priority 2024, dated 2025)",
  "test_system": "CT26 mouse colon carcinoma",
  "assay": "CT26 mouse tumor model, intratumoral injection, tumor growth",
  "assay_type": "in vivo, BALB/c mice",
  "conditions": "5mg/kg intratumorally on day 1, 4 and 8",
  "procedure": "The CT26 mouse colon carcinoma cell line was obtained from American Type Culture Collection (ATCC®, CRL-2638). The cells were cultured in RPMI-1640 medium containing 10% fetal bovine serum, 2 mM glutamine, 100 units/mL penicillin G sodium, and 100 µg/mL streptomycin sulfate at 37 °C in a humidified incubator with 5% CO2. On the day of tumor implantation in ten-week-old female BALB/c mice (Charles River Laboratories), CT26 cells harvested during the exponential growth phase were resuspended in phosphate-buffered saline (PBS) at a concentration of 1 × 10^7 cells/mL. Tumors were initiated by subcutaneous implantation of 1 × 10^6 CT26 cells (in a 0.1 mL suspension) into the right flank of each test animal. Tumor dimensions were measured in two directions, and tumor volumes were calculated using the formula (L × W^2)/2. Animals were pair matched when tumor reached volume 100 - 150 mm^3 (designated as day 1) and injected intratumorally (i.t.) on day 1, 4 and 8 with 5mg/kg or 1.5mg/kg Compound 2.2 or PBS in total volume 20 µL.",
  "data": [
    {"molecule": "Nc1ncnc2c1ncn2[C@@H]1O[C@@H]2OCP(=O)(S)O[C@@H]3[C@H](F)[C@@H](COP(=O)(S)OC[C@H]2[C@H]1F)O[C@H]3n1cnc2c(=O)[nH]cnc21", "note": "(single isomer, unassigned) [Compound 2.2]", "values": [
      {"measurement": "animals tumor free on day 65 (out twelve tumor bearing animals)", "value": "Twelve"}
    ]}
  ]
}
